Values after ≈ are worked out from the molar mass of the structure shown. Like-named read-outs stand apart in the source and are kept apart here.
How the values were obtained:
[1] = tested on: TNF production from whole blood stimulated with LPS; assay: Whole blood assay: LPS-induced TNF-α production (L929 fibrosarcoma cell bioassay); format: cell-based, horse
Experimental: (§1) A whole blood assay was used to assess the effects of rolipram and doramapimod on cytokine production from leukocytes (white blood cells) in response to bacterial lipopolysaccharide (endotoxin).
(§2) Blood samples (10 mL; sodium citrate anticoagulant) were obtained from the six normal horses, diluted 1:1 with RPMI 1640 cell culture medium and aliquoted into 15×1 mL aliquots. Serial dilutions of rolipram and doramapimod were made from 10^−2M stock solutions in phosphate-buffered saline and DMSO, respectively, and 10 μL added to […] give final concentrations ranging from 10^−10-10^−4 Molar. The samples were then incubated with 100 ng/mL purified bacterial lipopolysaccharide (endotoxin derived from E. Coli O55:B5; purified to remove DNA and protein contaminants). After incubation for 18 hours at 37° C. in a shaking incubator, samples were centrifuged at 300 g and supernatants stored at −80° C. for cytokine analysis.
The proinflammatory cytokine, TNF-α, was measured using a L929 fibrosarcoma cell bioassay. […] The yellow tetrazole dye, 3-(4,5-dimethylthiazol-2-yl)-2,5-diphenyltetrazolium bromide (MTT), is reduced to a purple formazan compound in living cells, which is then quantified using a colorimetric plate reader (absorbance read at 570 nm with reference wavelength of 650 nm). […]
(§3) The data are expressed as % inhibition of LPS-induced cytokine production at each of the drug concentrations. […]

[2] = Solubility / formulation for intravenous administration; format: physicochemical
Experimental: Solubility of the drugs was tested to determine their suitability for intravenous administration (this is the route of choice for the treatment of endotoxemia).

[3] = tested on: IL-1 production from whole blood stimulated with LPS; assay: Whole blood assay: LPS-induced IL-1β production (ELISA); format: cell-based, horse
Experimental: as §1, §2
Plasma IL-1β concentrations were measured using an equine-specific enzyme linked immunosorbent assay (ELISA; Horse IL-1β ELISA kit, Bethyl Laboratories, Montgomery, Tex., USA). […] The optical density (OD) values of samples were determined at 450 nm using an ELISA plate reader (BioTek Synergy H1) and concentrations determined using GENS Software (version 2.00.17).
as §3

[4] = equine whole blood, LPS, 18 hours

COc1ccc(C2CNC(=O)C2)cc1OC1CCCC1 (stereo not drawn) [rolipram]
IC50 ([1]; Equus caballus, L929, equine whole blood diluted 1:1 with RPMI 1640, LPS, 18 hours at 37° C., read-out: IC50, inhibition of TNFa production): 653 nM | inhibition of TNFa production at high concentrations [1, 4]: ~100% | solubility ([2]; 10% DMSO, aqueous with cosolvent or surfactant or cyclodextrin, read-out: soluble in 10% DMSO to): 1000 µg/mL (≈ 3630 µM) | solubility ([2]; water, read-out: water soluble to): 200 µg/mL (≈ 726 µM) | IC50 ([3]; Equus caballus, equine whole blood diluted 1:1 with RPMI 1640, LPS, 18 hours at 37° C., read-out: IC50, inhibition of IL-1 production): 1020 nM | maximum inhibition of IL-1 production [3, 4]: 39.5±7.1%

Reference: patent US11123349B2, “Method of treatment” (The University of Melbourne, priority 2017, dated 2021)
